Measured values published in patent US11440907B1 (Merck Patent GmbH, priority 2018, dated 2022).

What was measured:
[1] = system: β-catenin-TCF-mediated reporter transcription activity in Colo 205 cells; assay: Colo 205 reporter assay (TCF/LEF promoter-driven firefly luciferase); type: cell-based; conditions: Homo sapiens; Colo 205 TCF/LEF luciferase reporter, 5 hours after compound addition, 384 well; read-out: Colo205 IC50
Source text: The compounds of the invention described herein were screened using the assay procedure for β-catenin-TCF-mediated reporter transcription activity described below.
Reporter cell lines were generated by stably transfecting cells of cancer cell lines (e.g., colon cancer) with a plasmid reporter construct (From SABiosciences, a QIAGEN company) that includes TCF/LEF promoter driving expression of the firefly luciferase gene. TCF/LEF reporter constructs were made in which TCF/LEF promoter, a promoter with optimal number of TCF/LEF binding sites designed by SABiosciences, was linked upstream of the firefly luciferase gene. This construct could also include a puromycin resistance gene as a selectable marker. This construct could also be used to stably transfect Colo 205 cells, a colon cancer cell line having a mutated APC gene that causes a constitutively active β-catenin. A control cell line was generated using another plasmid construct containing the luciferase gene under the control of a CMV basal promoter which is not activated by β-catenin.
Colo 205 Cultured cells with a stably transfected reporter construct were plated at approximately 10,000 cells per well into 384 well multi-well plates for twenty four hours. The testing compounds were then added to the wells in 2-fold serial dilutions using a twenty micromolar top concentration. A series of control wells for each cell type received only compound solvent. Five hours after the addition of compound, reporter activity for luciferase was assayed, by addition of the SteadyGlo luminescence reagent (Promega). The reporter luminescence activity was measured using Pherastar plate reader (BMG Labtech). Readings were normalized to DMSO only treated cells, and normalized activities were then used in the IC50 calculations. The Colo 205 reporter assay data are summarized in Table 3: A<0.3 μM; 0.3 μM≤B<1.0 μM; 1.0 μM≤C<5.0 μM; D≥5.0 μM.

[2] = system: XBP1(u)-luciferase splicing reporter in HepG2 hepatoma cells; assay: HepG2 XBP1 reporter assay (XBP1(u)-Luc); type: cell-based; conditions: Homo sapiens, 6 hours after compound addition, Table 3, read-out: XBP1-luc HepG2 1 EC50

| Compound | IC50 [1] [nM] | EC50 [2] [nM] |
| --- | --- | --- |
| Cc1cc(N2CCCOC[C@@H]2c2ccc(NCC3(O)CCC3)cc2Cl)nc(N)n1 [I-263, 1-[[4-[(3S)-4-(2-amino-6-methyl-pyrimidin-4-yl)-1,4-oxazepan-3-yl]-3-chloro-anilino]methyl]-cyclobutanol] | < 300 | < 600 |
| Cc1cc(N2CCCOC[C@H]2c2ccc(NC(=O)C(C)(C)O)cc2Cl)nc(N)n1 (racemic) [I-277, (+/−)-N-(4-(4-(2-amino-6-methylpyrimidin-4-yl)-1,4-oxazepan-3-yl)-3-chlorophenyl)-2-hydroxy-2-methylpropanamide] | < 300 | < 600 |
| Cc1cc(N2CCCOC[C@@H]2c2ccc(N3CCC(C)(O)CC3)cc2Cl)nc(N)n1 [I-242, (5)-1-(4-(4-(2-amino-6-methylpyrimidin-4-yl)-1,4-oxazepan-3-yl)-3-chlorophenyl)-4-methylpiperidin-4-ol] | < 300 | < 600 |
| Cc1cc(N2CCCOCC2c2ccc(NC(=O)[C@H]3CCOC3)cc2Cl)nc(N)n1 (mixture of isomers) [I-281, (3S)—N-(4-(4-(2-amino-6-methylpyrimidin-4-yl)-1,4-oxazepan-3-yl)-3-chlorophenyl)-tetrahydrofuran-3-carboxamide] | 300 to 1000 | 600 to 2000 |
| COc1ccc(F)cc1[C@@H]1CCCCCN1c1cc(C)nc(N)n1 [I-285] | 300 to 1000 | 2000 to 5000 |
| COc1ccccc1[C@H]1CCCCCN1c1cc(C)nc(N)n1 (single isomer, unassigned) [I-11] | < 300 | 2000 to 5000 |
| Cc1cc(N2CCCOCC2c2ccc(OC3COC3)cc2Cl)nc(N)n1 (racemic) [I-231, (+/−)-4-[3-[2-chloro-4-(oxetan-3-yloxy)phenyl]-1,4-oxazepan-4-yl]-6-methyl-pyrimidin-2-amine] | < 300 | < 600 |
| Cc1cc(N2CCCOC[C@@H]2c2ccc(NCC3(C)COC3)cc2Cl)nc(N)n1 [I-240, 4-[(3S)-3-[2-chloro-4-[(3-methyloxetan-3-yl)methylamino]phenyl]-1,4-oxazepan-4-yl]-6-methyl-pyrimidin-2-amine] | < 300 | < 600 |
| Cc1cc(N2CCCCC[C@H]2c2ccccc2Cl)nc(N)n1 (single isomer, unassigned) [I-14] | < 300 | < 600 |
| Cc1cc(N2CCCOC[C@@H]2c2cc(NC(=O)CCO)ccc2Cl)nc(N)n1 (racemic) [I-174, (+/−)-N-[3-[4-(2-amino-6-methyl-pyrimidin-4-yl)-1,4-oxazepan-3-yl]-4-chloro-phenyl]-3-hydroxy-propanamide] | 300 to 1000 | 600 to 2000 |
| Cc1cc(N2CCCOCC2c2cc(NCCO)ccc2Cl)nc(N)n1 (single isomer, unassigned) [I-237] | < 300 | < 600 |
| Cc1cc(N2CCCOCC2c2cc3c(cc2Cl)SCCN3)nc(N)n1 (racemic) [I-274, 4-[3-(7-chloro-3,4-dihydro-2H-1,4-benzothiazin-6-yl)-1,4-oxazepan-4-yl]-6-methyl-pyrimidin-2-amine] | 300 to 1000 | ≥ 5000 |
| COCC(OC)c1ccc(C2COCCCN2c2cc(C)nc(N)n2)c(Cl)c1 (stereo not shown) [I-307] | < 300 | < 600 |
| Cc1cc(N2CCCOCC2c2cc(NCCCO)ccc2Cl)nc(N)n1 (racemic) [I-249, (+/−)-3-[3-[4-(2-amino-6-methyl-pyrimidin-4-yl)-1,4-oxazepan-3-yl]-4-chloro-anilino]propan-1-ol] | < 300 | < 600 |
| COc1ccccc1C1CCCCCN1c1cc(C)nc(N)n1 (stereo not shown) [I-124] | < 300 | 600 to 2000 |
| Cc1cc(N2CCCOCC2c2ccc(C3CCCN3)cc2Cl)nc(N)n1 (racemic) [I-267] | < 300 | < 600 |
| Cc1cc(N2CCCOCC2c2cc(N3CC[C@H](O)C3)ccc2Cl)nc(N)n1 (stereo partly drawn) [I-234, (3S)-1-[3-[4-(2-amino-6-methyl-pyrimidin-4-yl)-1,4-oxazepan-3-yl]-4-chloro-phenyl]pyrrolidin-3-ol] | 300 to 1000 | < 600 |
| Cc1cc(N2CCCOC[C@@H]2c2ccc(NC3CNC3)cc2Cl)nc(N)n1 [I-257, 4-[(3S)-3-[4-(azetidin-3-ylamino)-2-chloro-phenyl]-1,4-oxazepan-4-yl]-6-methyl-pyrimidin-2-amine] | 300 to 1000 | < 600 |
| Cc1cc(N2CCCOC[C@@H]2c2cc(Br)ccc2Cl)nc(N)n1 [I-245, 4-[(3S)-3-(5-bromo-2-chloro-phenyl)-1,4-oxazepan-4-yl]-6-methyl-pyrimidin-2-amine] | 300 to 1000 | < 600 |

| Compound | IC50 [1] [nM] | EC50 [2] [nM] |
| --- | --- | --- |
| Cc1cc(N2CCCOCC2c2cc(NC(=O)C(F)F)ccc2Cl)nc(N)n1 (racemic) [I-250, (+/−)-N-(3-(4-(2-amino-6-methylpyrimidin-4-yl)-1,4-oxazepan-3-yl)-4-chlorophenyl)-2,2-difluoroacetamide] | < 300 | < 600 |
| Cc1cc(N2CCCOCC2c2ccc(OC[C@@H](C)O)cc2Cl)nc(N)n1 (mixture of isomers) [I-232, (+/−)-1-(4-(4-(2-amino-6-methylpyrimidin-4-yl)-1,4-oxazepan-3-yl)-3-chlorophenoxy)propan-2-ol] | < 300 | < 600 |
| Cc1cc(N2CCCOCC2c2ccc(C3CCC(=O)N3C)cc2Cl)nc(N)n1 (racemic) [I-239, (+/−)-5-(4-(4-(2-amino-6-methylpyrimidin-4-yl)-1,4-oxazepan-3-yl)-3-chlorophenyl)-1-methylpyrrolidin-2-one] | 300 to 1000 | < 600 |
| COc1ccc(OC)c(C2CCCCCN2c2cc(C)nc(N)n2)c1 (racemic) [I-25, (+/−)-4-(2-(2,5-dimethoxyphenyl)azepan-1-yl)-6-methylpyrimidin-2-amine] | < 300 | 600 to 2000 |
| Cc1cc(N2CCCOC[C@@H]2c2cc(NCCO)ccc2Cl)nc(N)n1 (single isomer, unassigned) [I-253] | < 300 | < 600 |
| Cc1cc(N2CCCOCC2c2ccc(NC(=O)C(C)(C)O)cc2Cl)nc(N)n1 (stereo not shown) [I-308] | < 300 | < 600 |
| Cc1cc(N2CCCOC[C@@H]2c2ccc(OC[C@@H](C)O)cc2Cl)nc(N)n1 (single isomer, unassigned) [I-265] | < 300 | < 600 |
| Cc1cc(N2CCCOC[C@@H]2c2ccc(NC3CN(C(=O)OC(C)(C)C)C3)cc2Cl)nc(N)n1 [I-256, Tert-butyl 3-[4-[(3S)-4-(2-amino-6-methyl-pyrimidin-4-yl)-1,4-oxazepan-3-yl]-3-chloro-anilino]azetidine-1-carboxylate] | < 300 | < 600 |
| Cc1cc(N2CCCCC[C@H]2c2ccccc2Br)nc(N)n1 (single isomer, unassigned) [I-3] | < 300 | < 600 |
| Cc1cc(N2CCCOCC2c2ccc(NC3COC3)cc2Cl)nc(N)n1 (stereo not shown) [I-302] | < 300 | < 600 |
| Cc1cc(N2CCCOCC2c2ccc(N3CCN(C(=O)C4CC4)CC3)cc2Cl)nc(N)n1 (racemic) [I-273, (+/−)-[4-[4-[4-(2-amino-6-methyl-pyrimidin-4-yl)-1,4-oxazepan-3-yl]-3-chloro-phenyl]piperazin-1-yl]-cyclopropyl-methanone] | < 300 | < 600 |
| Cc1cc(N2CCCOCC2c2ccc(C3CCOC3)cc2Cl)nc(N)n1 (racemic) [I-238, (+/−)-4-(3-(2-chloro-4-(tetrahydrofuran-3-yl)phenyl)-1,4-oxazepan-4-yl)-6-methylpyrimidin-2-amine] | < 300 | < 600 |
| Cc1cc(N2CCCOCC2c2ccc(NC(=O)C(C)(F)F)cc2Cl)nc(N)n1 (racemic) [I-228, (+/−)-N-(4-(4-(2-amino-6-methylpyrimidin-4-yl)-1,4-oxazepan-3-yl)-3-chlorophenyl)-2,2-difluoropropanamide] | 300 to 1000 | < 600 |
| CC(=O)Nc1cc([C@H]2COCCCN2c2cc(C)nc(N)n2)c(Cl)cc1F (single isomer, unassigned) [I-271] | 300 to 1000 | < 600 |
| Cc1cc(N2CCCCCC2c2ccccc2Cl)nc(N)n1 (stereo not shown) [I-243] | < 300 | < 600 |
| COc1cccc(F)c1C1CCCCCN1c1cc(C)nc(N)n1 (racemic) [I-50, (+/−)-4-[2-(2-fluoro-6-methoxy-phenyl)azepan-1-yl]-6-methyl-pyrimidin-2-amine] | 300 to 1000 | 600 to 2000 |
| Cc1cc(N2CCCOC[C@@H]2c2ccc(NCC(C)(C)O)cc2Cl)nc(N)n1 [I-247, 1-[4-[(3S)-4-(2-amino-6-methyl-pyrimidin-4-yl)-1,4-oxazepan-3-yl]-3-chloro-anilino]-2-methyl-propan-2-ol] | < 300 | < 600 |
| COc1c(F)cccc1C1CCCCCN1c1cc(C)nc(N)n1 (stereo not shown) [I-287] | 300 to 1000 | ≥ 5000 |
| Cc1cc(N2CCCOCC2c2ccc(OCC3(CO)CC3)cc2Cl)nc(N)n1 (racemic) [I-233, (+/−)-[1-[[4-[4-(2-amino-6-methyl-pyrimidin-4-yl)-1,4-oxazepan-3-yl]-3-chloro-phenoxy]methyl]-cyclopropyl]methanol] | < 300 | 600 to 2000 |
